A melting point compilation (Tetko et al.; mined from patent text by program, amines drawn as free bases though some values may be those of a salt)
Non-standard residues stand in square brackets, D forms with d. Residues, ends and D or L forms follow the SMILES beside them. ξ: configuration not given here. *: point of attachment. Boc = CC(C)(C)OC(=O)*; Dha = C=C(N)C(=O)O; ξP = O=C(O)C1CCCN1

Compound | melting point [°C]
COc1nsc2c1C(=O)CCC2 | 45 to 46
O=C(CCl)N1CCC(c2noc3cc(F)ccc23)CC1 | 101 to 102
COC(=O)C1CCC2C3CCC4CC(OS(=O)(=O)c5ccc(C)cc5)CCC4(C)C3C(=O)CC12C (stereo unspecified) | 158 to 160
CNC(=S)NCCSCc1nc2ccccc2[nH]1 | 157 to 159
c1cc2c(cn1)OCCN2 | 167 to 169
COC(=O)c1cnc(C(=O)OC)c([N+](=O)[O-])c1 | 82 to 86
ON=C1CC(c2ccccc2)c2ccccc21 (stereo unspecified) | 123 to 125
c1ccc(CN(Cc2ccccc2)OCCCCCCCCON(Cc2ccccc2)Cc2ccccc2)cc1 | 49 to 51
CN1CCC(NC(=O)c2cc(Cl)ccc2F)CC1 | 143 to 145
Cn1c(CO)c(-c2ccccc2)c2ccccc2c1=O | 159 to 161
CCCCNCCCCCCCCSc1nc(-c2ccccc2)c(-c2ccccc2)[nH]1 | 75 to 78
Cc1cc(C)cc(Oc2c(CO)c(C)[nH]c(=O)c2I)c1 | 248 to 250
CC1(C)Oc2ccc(C#N)cc2C(Oc2cccnc2)C1(C)O (stereo unspecified) | 193 to 196
CC(C)(C)OCCCNC(=O)c1n[nH]cc1NC(=O)c1ccccn1 | 193 to 194
CCOC(=O)/C=C/c1cc2nc(CC)n(CCc3ccccc3)c(=O)c2cc1F | 140 to 142
COc1ccccc1-c1ccc2cnc(Nc3ccc(=O)[nH]c3)nn12 | 205 to 207
CC1=CC(C)(C)C=C(O)C1 | 46
CCCCC1OC(=O)c2cc(NC(N)=O)ccc21 (stereo unspecified) | 196 to 199
CCCCN(Cc1ccc(-c2ccccc2-c2nnn[nH]2)cc1)c1ncncc1C(=O)OC(C)OC(=O)c1ccccc1 (stereo unspecified) | 79 to 88
CCN(CC)C(=O)c1cc(-c2ccccc2)c2ccccc2c1-c1ccccc1 | 111 to 113
CNc1c2c(nn1C)N(c1c(C)cc(C)cc1C)CCC2 | 143 to 145
O=C1CCCc2nc3ccccc3c(NCc3ccc(Cl)cc3)c21 | 162 to 164
CC(C)Oc1cc(-n2c(=O)cc(C(F)(F)F)n(C)c2=O)c(F)cc1Br | 79
COc1cc2c(cc1O)OCC(c1ccc(O)cc1)C2 (stereo unspecified) | 159

Compound | melting point [°C]
CCCNC(=O)C(CC)Cc1ccc2c(c1)c(Cc1ccc(C(=O)O)cc1OC)cn2CCC (stereo unspecified) | 85 to 97
CN1CCN(c2cc(F)cc3c(=O)cc(C(=O)Nc4ccc(N5CCN(C(=O)OC(C)(C)C)CC5)cc4)oc23)CC1 | 219 to 220
CCCN=C(NCCC)c1cc(Cl)ccc1[N+](=O)[O-] | 63 to 64
O=[N+]([O-])c1ccccc1COc1cc[nH]n1 | 87
CC(=O)C1CCC2C3CCC4CC(O)C(O[N+](=O)[O-])CC4(C)C3C(=O)CC12C (stereo unspecified) | 170 to 176
C[C@@H](N1CCN(c2ccc(-n3cnn(Cc4ccc(OCC(F)(F)C(F)F)cc4)c3=O)cc2)CC1)[C@](O)(Cn1cncn1)c1ccc(F)cc1F | 83 to 85
CCCCCCC(=O)c1ccc2cc(OC)ccc2c1 | 69 to 72
CCOc1cc(Cc2cnc(N)nc2N)cc(OCC)c1C(O)CS(C)(=O)=O (stereo unspecified) | 205 to 206
CC1CCC(C(C)C)C(C(=O)NC(C)(C)C)C1 (stereo unspecified) | 145 to 146
CC(=O)NCC1CN(c2ccc(N3CCN(C=O)CC3)c(F)c2)C(=O)O1 (stereo unspecified) | 190 to 194
COc1cc(C(=O)OCCN(CCOC(=O)c2cc(OC)c(OC)c(OC)c2)CCS(=O)(=O)O)cc(OC)c1OC | 178 to 182
CCOC(=O)NNc1cc(C)c(-c2ccccc2)nn1 | 143 to 145
NC(=O)CCCSc1cccc(NC(N)=NCC(F)(F)F)n1 | 138 to 141
CCCCC[C@H]1CC[C@H](C(=O)N[C@@H](C(=O)OCc2ccccc2)[C@@H](C)O)CC1 | 130 to 134
O=C(NCc1cccs1)c1cc2ccnc(N(Cc3ccccc3)Cc3ccccc3)c2[nH]1 | 152 to 154
CCCCC(=O)c1c(-c2ccncc2)[nH]c(-c2ccncc2)c1C | 88 to 89
O=C(NN1CCCCC1)c1ccc(-c2ccc(Cl)cc2)c(-c2ccc(Cl)cc2Cl)c1 | 182
COc1cc2ncnc(Nc3cccc(N=[N+]=[N-])c3)c2cc1OC | 110 to 113
O=Cc1cccc(Cl)c1SCc1ccccc1 | 65 to 68
c1ccc(-c2ccc(Nc3nnc(Cc4ccncc4)c4ccccc34)cc2)cc1 | 189 to 191
Cc1cc(Cn2nc(C(F)(F)F)cc2C(F)(F)F)ccc1N1C(=O)c2cccc(F)c2C1=O | 158 to 159
Cc1cc(F)ccc1NCC(=O)NCc1ccccc1 | 75 to 76
NC(=O)CNC(=O)c1cccc(-c2cc(F)cc3cc(Cc4cccc(C(F)(F)F)c4)sc23)c1 | 71 to 73
Cc1cc(Cl)cc2c1NS(=O)(=O)N(C(C)C)C2=O | 142 to 144

Compound | melting point [°C]
O=C(OCC1(COC(=O)c2ccccc2)c2ccccc2-c2ccccc21)c1ccccc1 | 144 to 146
COc1nc(Cl)nc(Cl)c1C#N | 117
Cn1c(COc2ccc(CC(OCc3ccc(F)cc3)C(=O)O)cc2)nc2ccc(Sc3cc(C(C)(C)C)c(O)c(C(C)(C)C)c3)cc21 (stereo unspecified) | 40 to 46
Cc1cc(C(=O)O)c2[nH]c3c(c2c1)CCCC3 | 225
N#CC(=C(O)C1CCN(Cc2ccccc2)CC1)c1ccccc1 | 192
COc1cc2c(cc1-c1ccccc1F)NC(=O)CC(c1cccc(C#N)c1)=N2 | 245 to 247
NS(=O)(=O)OCCCOc1ccccc1 | 83 to 85
COc1ccc(-n2c(C)ccc2C)c(F)c1 | 67 to 69
COc1cc2ccccc2cc1C(=O)NNC(=O)c1ccc2ccccc2c1 | 194 to 196
CC(c1oc2ccccc2c(=O)c1-c1cccc(F)c1)n1nc(-c2cccc(C(=O)N3CCOCC3)c2)c2c(N)ncnc21 (stereo unspecified) | 104 to 106
C=CCOC(=O)C1=C2[C@@H](OC)CCC[C@@H]2[C@@H]2[C@@H]([C@H](O)C(F)(F)F)C(=O)N12 | 78 to 85
CCOC(=O)c1cc2cc(-c3ccc(C(C)=NO)cc3)ccc2o1 | 220 to 222
O=[N+]([O-])c1cc(C(F)(F)F)ccc1S(=O)(=O)NCC(O)(Cn1cncn1)c1ccc(Cl)cc1Cl (stereo unspecified) | 97 to 105
Cc1cc2c(cc1O)C(C)(C)CC1(CC(C)(C)c3cc(OCCCC(=O)O)c(C)cc3O1)O2 (stereo unspecified) | 173 to 174
CCCc1c(OCC2Cc3c(ccc(C(C)=O)c3O)O2)ccc(C(C)=O)c1O (stereo unspecified) | 104 to 106
COc1ccc(CN(C)CCCCCc2ccc(NC(=O)c3cccc4c(=O)c5cccc(F)c5[nH]c34)cc2)cc1OC | 130
CCCCc1ccc(-c2nc3c(s2)C(=O)C(NCCN(C)C)=CC3=O)cc1 | 126 to 127
O=C(c1ccccc1)c1ccc[nH]1 | 76 to 77
COc1cc2c(=O)c(S(=O)(=O)N(C)C)cn(C)c2cc1C | 232 to 233
CCC(Oc1cccc([N+](=O)[O-])c1Cl)C1=NCCN1 (stereo unspecified) | 100 to 103
C=C(NC(=O)C1CCCN1C(=O)OC(C)(C)C)C(=O)O (stereo unspecified) (Boc-[ξP]-[Dha]-OH) | 154 to 156
C=C(C)COc1ccc(C(=O)C=Cc2cccnc2)c(O)c1 | 164 to 166
CNc1nc(C)c(-c2ccc(Cl)c([N+](=O)[O-])c2)s1 | 220 to 232
